Patent US8541588B2, “Sulfonamide derivatives” (Pfizer Limited, priority 2009, dated 2013)
Several values for one entry are separate records, joined by “and”; a condition that tells them apart may be missing. Equal values may be shown once.

Target: T1, Nav1.7 (or SCN9A) channel; HEK cells stably transfected with hSCN9A (Homo sapiens, UniProt Q15858)
T1 construct: expressed in transfected cells
Assay: Nav1.7 block, PatchXpress 7000 automated whole-cell voltage clamp, estimated IC50 (EIC50)
Assay type: cell-based
Conditions: PatchXpress platform, estimated IC50

[1] = hSCN9A HEK cells held at V1/2 of inactivation
[2] = hSCN9A HEK cells, Examples 283-814
[3] = hSCN9A HEK cells, Examples 815-1040

T1 sequence (Q15858 whole entry): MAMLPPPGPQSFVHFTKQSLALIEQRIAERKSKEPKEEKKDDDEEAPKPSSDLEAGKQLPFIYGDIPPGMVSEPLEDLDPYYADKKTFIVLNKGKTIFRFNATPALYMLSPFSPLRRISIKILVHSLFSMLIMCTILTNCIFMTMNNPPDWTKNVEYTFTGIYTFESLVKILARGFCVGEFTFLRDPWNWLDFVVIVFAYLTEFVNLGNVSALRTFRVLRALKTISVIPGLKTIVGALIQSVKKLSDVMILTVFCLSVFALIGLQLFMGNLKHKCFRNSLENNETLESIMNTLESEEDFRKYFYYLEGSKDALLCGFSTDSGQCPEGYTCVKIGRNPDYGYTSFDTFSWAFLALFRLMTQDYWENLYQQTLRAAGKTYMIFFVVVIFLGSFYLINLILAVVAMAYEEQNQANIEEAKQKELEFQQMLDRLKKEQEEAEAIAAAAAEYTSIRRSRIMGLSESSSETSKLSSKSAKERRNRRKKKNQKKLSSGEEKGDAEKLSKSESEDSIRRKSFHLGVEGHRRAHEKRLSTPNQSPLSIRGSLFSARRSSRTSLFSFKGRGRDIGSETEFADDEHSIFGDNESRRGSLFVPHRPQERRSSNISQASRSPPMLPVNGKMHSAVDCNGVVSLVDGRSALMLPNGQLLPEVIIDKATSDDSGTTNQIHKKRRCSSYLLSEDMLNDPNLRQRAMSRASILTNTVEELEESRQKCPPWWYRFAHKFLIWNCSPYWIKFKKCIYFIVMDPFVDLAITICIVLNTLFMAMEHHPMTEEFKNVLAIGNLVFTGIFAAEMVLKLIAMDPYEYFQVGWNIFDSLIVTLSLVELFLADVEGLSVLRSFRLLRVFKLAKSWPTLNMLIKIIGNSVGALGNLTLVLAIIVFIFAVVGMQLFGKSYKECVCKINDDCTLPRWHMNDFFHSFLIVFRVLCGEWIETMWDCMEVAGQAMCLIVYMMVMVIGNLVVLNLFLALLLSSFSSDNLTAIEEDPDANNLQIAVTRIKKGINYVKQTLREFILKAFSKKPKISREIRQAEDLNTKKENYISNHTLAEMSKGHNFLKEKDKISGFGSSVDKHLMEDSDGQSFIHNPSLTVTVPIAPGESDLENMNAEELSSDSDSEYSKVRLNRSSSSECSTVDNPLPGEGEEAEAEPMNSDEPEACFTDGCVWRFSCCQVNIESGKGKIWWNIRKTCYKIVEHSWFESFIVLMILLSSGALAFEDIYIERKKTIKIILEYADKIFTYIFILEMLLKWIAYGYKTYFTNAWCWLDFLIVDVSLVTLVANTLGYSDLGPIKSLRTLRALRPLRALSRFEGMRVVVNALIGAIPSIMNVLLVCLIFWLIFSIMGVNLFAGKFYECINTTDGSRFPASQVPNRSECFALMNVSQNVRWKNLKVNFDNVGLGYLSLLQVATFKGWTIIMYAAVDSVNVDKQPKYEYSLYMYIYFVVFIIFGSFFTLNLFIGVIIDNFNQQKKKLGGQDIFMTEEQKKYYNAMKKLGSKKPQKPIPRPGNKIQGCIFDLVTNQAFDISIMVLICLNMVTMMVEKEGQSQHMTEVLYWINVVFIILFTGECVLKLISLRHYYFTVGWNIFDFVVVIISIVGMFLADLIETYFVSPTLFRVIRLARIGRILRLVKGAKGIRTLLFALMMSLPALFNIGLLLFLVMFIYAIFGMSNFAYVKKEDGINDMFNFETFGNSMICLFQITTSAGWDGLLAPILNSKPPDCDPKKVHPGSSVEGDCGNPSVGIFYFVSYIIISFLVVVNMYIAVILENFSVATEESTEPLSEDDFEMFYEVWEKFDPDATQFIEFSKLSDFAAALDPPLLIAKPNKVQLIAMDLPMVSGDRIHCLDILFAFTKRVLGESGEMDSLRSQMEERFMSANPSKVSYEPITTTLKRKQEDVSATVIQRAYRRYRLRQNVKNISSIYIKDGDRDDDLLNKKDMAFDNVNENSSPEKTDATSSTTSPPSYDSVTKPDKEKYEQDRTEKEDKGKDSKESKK

| IC50 [1] | IC50 [2] | SMILES | also measured |
| --- | --- | --- | --- |
| 770 nM | – | Cc1ccc(Oc2ccc(S(=O)(=O)Nc3nccs3)cc2F)c(-c2[nH]ncc2C)c1 [Example 224, 3-fluoro-4-(4-methyl-2-(4-methyl-1H-pyrazol-5-yl)phenoxy)-N-(thiazol-2-yl)benzenesulfonamide] | – |
| – | 120 nM | CCn1nc(C(F)(F)F)cc1-c1cccc(Oc2ccc(S(=O)(=O)Nc3nccs3)cc2C#N)c1 [Example 547, 3-cyano-4-{3-[1-ethyl-3-(trifluoromethyl)-1H-pyrazol-5-yl]phenoxy}-N-1,3-thiazol-2-ylbenzenesulfonamide] | – |
| >10000 nM and 24900 nM | – | N#Cc1cc(S(=O)(=O)Nc2cnsc2)ccc1Oc1ccccc1-c1ccccc1 [Example 99, 4-(biphenyl-2-yloxy)-3-cyano-N-isothiazol-4-ylbenzenesulfonamide] | – |
| – | – | N#Cc1cc(S(=O)(=O)Nc2ncc(Cl)s2)ccc1Oc1ccc(Cl)cc1-c1ccon1 [Example 990, 4-(4-chloro-2-isoxazol-3-ylphenoxy)-N-(5-chloro-1,3-thiazol-2-yl)-3-cyanobenzenesulfonamide] | IC50 [3]: 310 nM |
| – | >1000 nM | CC(C)C1CN(c2ccc(Oc3ccc(S(=O)(=O)Nc4nccs4)cc3C#N)cc2)C(=O)N1 (stereo not drawn) [Example 485, 3-cyano-4-[4-(4-isopropyl-2-oxoimidazolidin-1-yl)phenoxy]-N-1,3-thiazol-2-ylbenzenesulfonamide] | – |
| 1120 nM | – | Cn1nccc1-c1cc(CO)ccc1Oc1ccc(S(=O)(=O)Nc2ncns2)cc1C#N [Example 91, 3-cyano-4-(4-(hydroxymethyl)-2-(1-methyl-1H-pyrazol-5-yl)phenoxy)-N-(1,2,4-thiadiazol-5-yl)benzenesulfonamide] | – |
| – | – | N#Cc1cc(S(=O)(=O)Nc2ccc(F)cn2)ccc1Oc1ccc(F)cc1C1CC1 [Example 1004, 3-cyano-4-(2-cyclopropyl-4-fluorophenoxy)-N-(5-fluoropyridin-2-yl)benzenesulfonamide] | IC50 [3]: 7100 nM |
| – | 160 nM | CCc1cc(S(=O)(=O)Nc2cscn2)c(F)cc1Oc1ccc(F)cc1-c1ccnn1C [Example 627, 5-ethyl-2-fluoro-4-[4-fluoro-2-(1-methyl-1H-pyrazol-5-yl)phenoxy]-N-1,3-thiazol-4-ylbenzenesulfonamide] | – |
| – | 11 nM | N#Cc1cc(S(=O)(=O)Nc2ncns2)ccc1Oc1ccc(I)cc1-c1ccn[nH]1 [Example 506, 3-cyano-4-[4-iodo-2-(1H-pyrazol-5-yl)phenoxy]-N-1,2,4-thiadiazol-5-ylbenzenesulfonamide] | – |
| – | – | Cc1cc(NS(=O)(=O)c2ccc(Oc3ccc(Cl)cc3-c3ccnn3C)c(C#N)c2)no1 [Example 883, 4-[4-chloro-2-(1-methyl-1H-pyrazol-5-yl)phenoxy]-3-cyano-N-(5-methylisoxazol-3-yl)benzenesulfonamide] | IC50 [3]: 14000 nM |
| 25500 nM | – | Cc1ccc(-c2ncccc2Oc2ccc(S(=O)(=O)Nc3ncns3)cc2C#N)cc1 [Example 17, 3-cyano-4-{[2-(4-methylphenyl)pyridin-3-yl]oxy}-N-1,2,4-thiadiazol-5-ylbenzenesulfonamide] | – |
| – | 11000 nM | Cc1cnsc1-c1ccccc1Oc1ccc(S(=O)(=O)Nc2ccc(F)cn2)cc1C#N [Example 577, 3-cyano-N-(5-fluoropyridin-2-yl)-4-[2-(4-methylisothiazol-5-yl)phenoxy]benzenesulfonamide] | – |
| 2320 nM | – | N#Cc1cc(S(=O)(=O)Nc2cscn2)ccc1Oc1ccccc1-c1ccccc1 [Example 97, 4-(biphenyl-2-yloxy)-3-cyano-N-1,3-thiazol-4-ylbenzenesulfonamide] | – |
| 230 nM | – | CCOC(=O)Cn1nccc1-c1cc(Cl)ccc1Oc1ccc(S(=O)(=O)Nc2ncns2)cc1C#N [Example 29, ethyl 2-(5-(2-(4-(N-1,2,4-thiadiazol-5-ylsulfamoyl)-2-cyanophenoxy)-5-chlorophenyl)-1H-pyrazol-1-yl)acetate] | – |
| – | >300 nM | O=S(=O)(Nc1cscn1)c1cc(Cl)c(Oc2ccc(C(F)(F)F)cc2-c2cncc(CO)c2)cc1F [Example 689, 5-Chloro-2-fluoro-4-{2-[5-(hydroxymethyl)pyridin-3-yl]-4-(trifluoromethyl)phenoxy}-N-1,3-thiazol-4-ylbenzenesulfonamide] | – |
